Laboratory results: patent publication USRE35706E, “Lipophila derivatives of muramylpeptides having properties of activating macrophages and compositions containing them” (priority 1984, dated 1997)
Several values for one entry are separate records, joined by “and”; a condition that tells them apart may be missing. Equal entries are not always repeated.

Assays:
[1] = tested on: Klebsiella pneumoniae; assay: Anti-infectious activity in mice infected with Klebsiella pneumoniae; type: in vivo; details: for protective activity against lethal Klebsiella pneumoniae infection in the mouse (in words): summary of observations
[2] = Retention of the muramylpeptide in liposomes suspended in MEM-FCS medium; type: physicochemical; details: liposomes in MEM-FCS medium at 37° C.
Protocol: Liposomes produced under the same conditions, but with muramylpeptides labeled with tritium have enabled the following observations. […] The incorporation of the MDP-GDP and the stability of the latter, has also been verified in reaction tests with anti-MDP monoclonal antibodies. After incubation of these liposomes in the same medium at 37° C. for 72 hours, there is observed a constant agglutination of the liposomes with the antibody (95% of the liposome being agglutinated), this observation bearing witness to the practical absence of any loss of MDP-GDP. […] The leakage, if it was produced, would have been manifested by a decrease in the intensity of agglutination with time.

[3] = Pyrogenicity measurements on rabbits (European Pharmacopoea); type: in vivo, rabbit; details: 1 mg/kg; groups of three rabbits, one value per animal; listed as 6 -0-GDP-MDPG-OnBu
From the text: Certain of the compounds according to the invention show at relatively high doses, a certain pyrogenicity, whose impact is however reduced, taking into account the particularly higher therapeutic index from which they appear to benefit. This being the case, the muramylpeptides in which the group of modification by the two lipophile chains is fixed to the 6 position of the saccharide group, and of which the peptide chain is terminated by a glutamy-alpha-ester-gamma-amide group, are particularly advantageous by reason of their more reduced pyrogenicity. Testimony thereof is borne by comparative pyrogenicity measurements carried out on groups of three rabits with the two compounds more particularly studied, according to the procedure of the European Pharmacopoea, Vol. 2, 1971, pages 58-60. In fact, the following results are obtained, expressed by temperature observations observed in experimental animals to which had previously been administered 1 mg/kg of the compounds studied: for the MDP-GDP : 1°;0.9° and 1° C.; for the 6 -0-GDP-MDPG-OnBu : 0.2°; 0.3° and 0.5° C.

[4] = tested on: bovine serumal-bumin; assay: Adjuvant activity in the Swiss female mouse (passive hemagglutination titer); type: in vivo; details: for Primary response 1.21: 100 micrograms with 500 micrograms bovine serum albumin at day 0, serums titrated in pools at day 21; for Secondary response 1.36: booster of 100 micrograms antigen alone at day 30, serums titrated separately at day 36
Protocol: At day 0, 100 micrograms of C474 were injected with 500 micrograms of bovine serumal-bumin. At day 30, the animals received a booster of 100 micrograms of antigen alone. The following results were obtained:
The titers are expressed in Log 2 of the passive hemagglutination titer. At day 21, the serums were titrated in pools; at day 36, they were titrated separately.

[5] = tested on: Candida albicans; assay: Protective action in mice infected with Candida albicans; type: in vivo
[6] = Table X, 100 μg i.v. at day -1 (dose not given for MDP-L-Ala-GDP), 10^4 K. pneumoniae
[7] = Table XI, 100 μg/day/4 days i.v. (days -4, -3, -2 and -1), 2 × 10^6 Candida albicans

Q: For “6-O-(beta, gamma-dipalmitoyl-L-glycerol)-capryl-N-acetyl-muramyl-L-alanyl-D-glutamine -n-butyl ester [6-0-GDP-aminocaproyl-MDPG-OnBu]”, which “Protection (%)” value [1, 6] is on record?
A: Its value is 56%.

Q: What about the “Survival (15 d)” value [1, 6] of the same compound?
A: The value was 9/16.

Q: What about the “retention of the muramylpeptide in the liposomes (in words)” value (shortened to “retention of the muramylpeptide”) [2] of the same compound?
A: The value was “Quite similar observations”.

Q: What does the source list for “6-O-(beta, gamma-dipalmitoyl-L-glyceryl)-N-acetyl-muramyl-L-alanyl-D-glutamine-n-buty l-ester [6-O-GDP-MDPG-OnBu]”?
A: Protection (%) ([1]; Table VII, aqueous suspension, 100 μg i.v. at day -1, 10^4 K. pneumoniae): 68.7%; Survival (15 d) ([1]; Table VII, aqueous suspension, 100 μg i.v. at day -1, mice infected i.v. with 10^4 K. pneumoniae): 22/32; protective activity against lethal Klebsiella pneumoniae infection in the mouse (in words) [1]: protective activity comparable; retention of the muramylpeptide in the liposomes (in words) [2]: Quite similar observations; pyrogenicity, temperature observations in experimental animals [3]: 0.2 °C and 0.3 °C and 0.5 °C; Primary response 1.21 [4]: 2.64 Log 2 of the passive hemagglut; Secondary response 1.36 [4]: 8.6 Log 2 of the passive hemagglut

Q: For `C[C@@H]1[C@H](O)[C@@H](C)/C=C/C=C/C=C/C=C/C=C/C=C/C=C/[C@H](O[C@@H]2O[C@H](C)[C@@H](O)[C@H](N)[C@@H]2O)C[C@@H]2O[C@](O)(C[C@@H](O)C[C@@H](O)[C@H](O)CC[C@@H](O)C[C@@H](O)CC(=O)O[C@H]1C)C[C@H](O)[C@H]2C(=O)O` [Amphotericin B, reference compound], which “Survival (10 d)” value ([5]; Table XI, Amphotericin B 3 μg subcutaneously on the day of infection, 2 × 10^6 Candida albicans i.v.) is on record?
A: Its value is 2/16.

Q: What does the source list for `CCCCCCCCCCCCCCCC(=O)OCC(COC(=O)[C@H](C)NC(=O)CC[C@@H](NC(=O)[C@@H](C)NC(=O)[C@@H](C)O[C@H]1[C@H](O)[C@@H](CO)OC(O)[C@@H]1NC(C)=O)C(N)=O)OC(=O)CCCCCCCCCCCCCCC` (stereo partly drawn) [MDP(D,D)-L-Ala-GDP, alpha (N-acetyl-muramyl-D-alanyl-D-isoglutaminyl-L-alanine) beta, gamma-dipalmitoyl-sn-glycerol]?
A: Protection (%) [1, 6]: 25%; protective activity against lethal Klebsiella pneumoniae infection in the mouse (in words) [1]: although active, is less so than MDP-L-Ala-GDP; retention of the muramylpeptide in the liposomes (in words) [2]: Quite similar observations

Q: With `CCCCCCCCCCCCCCCC(=O)OC[C@@H](COC(=O)CC[C@@H](NC(=O)[C@H](C)NC(=O)[C@@H](C)O[C@H]1[C@H](O)[C@@H](CO)OC(O)[C@@H]1NC(C)=O)C(N)=O)OC(=O)CCCCCCCCCCCCCCC` (stereo partly drawn) [MDP-GDP, alpha (N-acetyl-muramyl-L-alanyl-D-isoglutamine), beta, gamma-dipalmitoyl-sn-glycerol] as the compound, how does the “Protection (%)” value ([1]; Table IX, 30 μg intravenously 24 hours before infection, 5 × 10^4 K. pneumoniae) read?
A: Its value is 16%.

Q: What about the “protective activity when injected in liposomes (in words)” value ([1]; in liposomes, at 0.1 microgram) of the same compound?
A: The value was “the most active”.

Q: And the “protective activity against lethal Klebsiella pneumoniae infection in the mouse (in words)” value [1]?
A: Its value is “protective activity comparable”.

Q: And the Protection ([5]; Table XI, 100 μg/day/4 days i.v.)?
A: The Protection was 19.

Q: What about the “Survival (10 d)” value [5, 7] of the same compound?
A: The value was 2/16.

Q: And the Protection ([5]; Table XII, aqueous suspension 100 μg × 4)?
A: Its Protection is 75%.

Q: What about the “Survival (10 d)” value ([5]; Table XII, aqueous suspension 100 μg × 4 (days -4, -3, -2, -1), 10^6 Candida albicans) of the same compound?
A: The value was 6/8.

Q: What about the “Primary response 1.21” value [4] of the same compound?
A: Its value is 3.64 Log 2 of the passive hemagglut.

Q: What about the “Secondary response 1.36” value [4] of the same compound?
A: Its value is 10.27 Log 2 of the passive hemagglut.

Q: With `CCCCCCCCCCCCCCCC(=O)OCC(COC(=O)[C@H](C)NC(=O)CC[C@@H](NC(=O)[C@H](C)NC(=O)[C@@H](C)O[C@H]1[C@H](O)[C@@H](CO)OC(O)[C@@H]1NC(C)=O)C(N)=O)OC(=O)CCCCCCCCCCCCCCC` (stereo partly drawn) [MDP-L-Ala-GDP, alpha (N-acetyl-muramyl-L-alanyl-D-isoglutaminyl-L-alanine), beta, gamma-dipalmitoyl-sn-glycerol] as the compound, how does the “Protection (%)” value [1, 6] read?
A: The value was 63%.

Q: What about the “retention of the muramylpeptide” value [2] of the same compound?
A: The value was “Quite similar observations”.

Q: With Gentamicin [reference compound] as the compound, how does the “Protection (%)” value ([1]; Table IX, Gentamicin 10 μg subcutaneously 2 hours after infection, 5 × 10^4 K. pneumoniae) read?
A: The value was 21%.

Q: For “alpha (N-acetyl-muramyl-D-alanyl-D-isoglutamine), beta, gamma-dipalmitoyl-sn-glycerol [MDP (D-D) - GDP]”, which “protective activity against lethal Klebsiella pneumoniae infection in the mouse (in words)” value [1] is on record?
A: Its value is “protective activity comparable”.

Q: What about the “retention of the muramylpeptide” value [2] of the same compound?
A: The value was “Quite similar observations”.

Q: And the “Survival (10 d)” value [5, 7]?
A: The value was 0/16.
